Results taken from patent EP4548971A1, “1,4-BENZOTHIAZEPINES AND RELATED COMPOUNDS WITH CYCLOPROPANOL GROUPS AS MULTI-TARGETED DRUGS” (Georg-August-Universität Göttingen Stiftung Öffentlichen …, priority 2023, dated 2025).

Legend:
Format in all cases: cell-based
[1] = molecular target: T1, WT RyR2 (Mus musculus, UniProt E9Q401); assay: Time-lapse [Ca2+]ER assay (RyR2 R-CEPIA1er assay) in HEK-293 cells; conditions: 25 µM, vs. 0.1 v/v% DMSO
T1 construct: expressed in transfected cells
Experimental: HEK-293 cells stably expressing R-CEPIA1er and WT RyR2 (generous gift from Takashi Murayama, Juntendo University School of Medicine, Tokyo) were cultured in Dulbecco's Modified Eagle medium (DMEM, Thermo Fisher Scientific, Darmstadt, Germany) supplemented with 10% fetal bovine serum (FBS, Thermo Fisher Scientific, Darmstadt, Germany), 0.9% Penicillin/Streptomycin (Merck KGaA, Darmstadt, Germany), 15ug/mL Blasticidine (Invivogen, Toulouse, France), 100 µg/mL Hygromycin (Merck KGaA, Darmstadt, Germany) and 400 µg/mL G418 (Thermo Fisher Scientific, Darmstadt, Germany) in a humidified 5% COz incubator at 37 °C. To induce the expression of WT RyR2 in the endoplasmic reticulum (ER), 2 µg/mL Doxycycline (Merck KGaA, Darmstadt, Germany) was added 24 h before experiments.
The fluorescent plate reader [Ca^2+]ER assay was performed according to the slightly modified protocol of Murayama & Kurebayashi [T. Murayama, N. Kurebayashi, Assays for Modulators of Ryanodine Receptor (RyR)/Ca(2+) Release Channel Activity for Drug Discovery for Skeletal Muscle and Heart Diseases. Curr. Protoc. […] After the cells were inducted with Doxycycline for 24 h, changes in ER calcium concentrations [Ca^2+]ER were measured on a multiwell plate reader TECAN Spark 20M at 37 °C. The 1000 × stock solutions of the test compounds were prepared in DMSO. Briefly, the culture medium was removed and 100 µl of Tyrode's solution containing 2 mM CaCl2 was added to the cells. The time courses were recorded in each well. Fluorescence was evoked by 560 nm excitation wavelength and collected in a bottom-read mode at 610 nm. Data was recorded every 10 s, exposure - 20 flashes, excitation bandwidth - 20 nm, emission bandwidth - 20 nm. 100 µl of 0 - 100 µM solution of test compound in Tyrode's solution containing 2 mM CaCh was injected in each well (speed 100 µl/s) at the 90 s time point. […] The 0.1 v/v% DMSO and 2 mM CaCh Tyrode's solution was used as a control.
The dose response curves were calculated using the software package GraphPad Prism version 8.3.1. (GraphPad Software, Inc.). All data are presented as mean ± S.D. in 3 independent experiments. Y=Bottom + (Top-Bottom)/(1+10^((LogEC50-X)*HillSlope)) was used where HillSlope describes the steepness of the curve, Top and Bottom are plateaus in the units of the Y axis.
The inventors measured changes in Ca^2+ levels in the endoplasmic reticulum (ER) of HEK-293 cells with inducible expression of wild-type RyR2 (WT RyR2) [T. Murayama, N. Kurebayashi, M. Ishigami-Yuasa, S. Mori, Y. Suzuki, R. Akima, H. Ogawa, J. Suzuki, K. Kanemaru, H. Oyamada, Y. Kiuchi, M. Iino, H. Kagechika, T. Sakurai, Efficient High-Throughput Screening by Endoplasmic Reticulum Ca(2+) Measurement to Identify Inhibitors of Ryanodine Receptor Ca(2+)-Release Channels. […] The cells additionally stably express the Ca^2+ fluorescence indicator R-CEPIA1er, which is a genetically encoded sensor protein of Ca^2+ in the ER ([Ca^2+]ER) [T. Murayama, N. Kurebayashi, Assays for Modulators of Ryanodine Receptor (RyR)/Ca(2+) Release Channel Activity for Drug Discovery for Skeletal Muscle and Heart Diseases. Curr. Protoc.
The fluorescence ratio F/F0 was calculated, where F0 - is the average fluorescence for the first 90 s, F - is the average fluorescence for the last 100 s, and normalized.

[2] = test system: saponin-permeabilized ventricular cardiomyocytes (sp-vCM) from WT mice; assay: Ca2+ wave decay in saponin-permeabilized ventricular cardiomyocytes, WT mice; conditions: 10 µM, result in words
Text: (§1) • Figure 1: Synthesis scheme showing the synthesis of multifunctional compounds with cyclopropanol residues based on 1,4 -benzothiazepines. The respective reaction conditions (a) to (i) are as follows: (a) Jones reagent, aceton; (b) H2SO4, EtOH; (c) EtMgBr, Ti(OiPr)4, EtzO; (d) t-BuMe2SiOSO2CF3, 2,6-lutidine, DCM; (e) Hz, Pd/C, THF; (f) Dess-Martin reagent, DCM; (g) K2CO3, 1,4-dioxane; (h) N2H4*H2O, EtOH; (i) Na(CH3COO)3BH, 1,2-dichloroethane; (j) NaH, DMF; (k) aq. HF (55%), MeCN or 1 M n-Bu4NF in THF or KF, Et3N*HCl, MeOH. m,n = 2-8. • Figure 2: Synthesis scheme showing the synthesis of multifunctional compounds with cyclopropanol residues based on the "open" analogs 1,4 -benzothiazepines (i.e. 3-[(4-methoxyphenyl)oxy]-and 3-[(4-methoxyphenylthio)]propane-1-amine derivatives). […] Values represent the mean ± S.D., *** P < 0.0005, **** P < 0.0001 vs. DMSO by unpaired t test; n = 6 - 28. • Figure 6: Time-lapse fluorescence measurements using TECAN Spark 20M plate reader with HEK293 cells expressing WT RyR2 and R-CEPIA1er indicator. […] Fluorescence ratio F/F0, where F0 - average fluorescence signal for the first 90 seconds, F- average fluorescence signal for the last 100 s, was taken for the calculations. […] Data sets were analyzed by unpaired Student's t-test. n.s. non-significant with P=0.59 for Dan, **, P<0.01 with P=0.003 for S36, and *, P<0.05 with P=0.019 for GM1869; (D, E, F) Relative changes in the decay time tau of Ca2+ transients from spontaneous Ca2+ waves (in control/drug) by Dan (D, 10µM), S36 (E, 10 µM), and GM1869 (F, 10 µM) in cardiomyocytes from WT and RyR2R2474S/+ mice. […] Rise times represent the tau values calculated by a mono-exponential fit of the Ca2+ transients from start to the peak of the signal. Ca2+ transients were recorded in control conditions and every 2 min (S36) or 4 min (GM1869) after drug application. **, P = 0.0065 for S36; ****, P = 0.000019 for GM1869, evaluated by paired Student's t-test. […] Decay times represent the tau values calculated by a mono-exponential fit of the Ca2+ transients from half maximum to baseline of the signal. […]

[3] = test system: saponin-permeabilized ventricular cardiomyocytes (sp-vCM) from RyR2R2474S/+ mice; assay: Ca2+ wave decay in saponin-permeabilized ventricular cardiomyocytes, RyR2R2474S/+ mice; conditions: 10 µM, result in words
Text: as §1

T1 sequence (E9Q401 whole entry): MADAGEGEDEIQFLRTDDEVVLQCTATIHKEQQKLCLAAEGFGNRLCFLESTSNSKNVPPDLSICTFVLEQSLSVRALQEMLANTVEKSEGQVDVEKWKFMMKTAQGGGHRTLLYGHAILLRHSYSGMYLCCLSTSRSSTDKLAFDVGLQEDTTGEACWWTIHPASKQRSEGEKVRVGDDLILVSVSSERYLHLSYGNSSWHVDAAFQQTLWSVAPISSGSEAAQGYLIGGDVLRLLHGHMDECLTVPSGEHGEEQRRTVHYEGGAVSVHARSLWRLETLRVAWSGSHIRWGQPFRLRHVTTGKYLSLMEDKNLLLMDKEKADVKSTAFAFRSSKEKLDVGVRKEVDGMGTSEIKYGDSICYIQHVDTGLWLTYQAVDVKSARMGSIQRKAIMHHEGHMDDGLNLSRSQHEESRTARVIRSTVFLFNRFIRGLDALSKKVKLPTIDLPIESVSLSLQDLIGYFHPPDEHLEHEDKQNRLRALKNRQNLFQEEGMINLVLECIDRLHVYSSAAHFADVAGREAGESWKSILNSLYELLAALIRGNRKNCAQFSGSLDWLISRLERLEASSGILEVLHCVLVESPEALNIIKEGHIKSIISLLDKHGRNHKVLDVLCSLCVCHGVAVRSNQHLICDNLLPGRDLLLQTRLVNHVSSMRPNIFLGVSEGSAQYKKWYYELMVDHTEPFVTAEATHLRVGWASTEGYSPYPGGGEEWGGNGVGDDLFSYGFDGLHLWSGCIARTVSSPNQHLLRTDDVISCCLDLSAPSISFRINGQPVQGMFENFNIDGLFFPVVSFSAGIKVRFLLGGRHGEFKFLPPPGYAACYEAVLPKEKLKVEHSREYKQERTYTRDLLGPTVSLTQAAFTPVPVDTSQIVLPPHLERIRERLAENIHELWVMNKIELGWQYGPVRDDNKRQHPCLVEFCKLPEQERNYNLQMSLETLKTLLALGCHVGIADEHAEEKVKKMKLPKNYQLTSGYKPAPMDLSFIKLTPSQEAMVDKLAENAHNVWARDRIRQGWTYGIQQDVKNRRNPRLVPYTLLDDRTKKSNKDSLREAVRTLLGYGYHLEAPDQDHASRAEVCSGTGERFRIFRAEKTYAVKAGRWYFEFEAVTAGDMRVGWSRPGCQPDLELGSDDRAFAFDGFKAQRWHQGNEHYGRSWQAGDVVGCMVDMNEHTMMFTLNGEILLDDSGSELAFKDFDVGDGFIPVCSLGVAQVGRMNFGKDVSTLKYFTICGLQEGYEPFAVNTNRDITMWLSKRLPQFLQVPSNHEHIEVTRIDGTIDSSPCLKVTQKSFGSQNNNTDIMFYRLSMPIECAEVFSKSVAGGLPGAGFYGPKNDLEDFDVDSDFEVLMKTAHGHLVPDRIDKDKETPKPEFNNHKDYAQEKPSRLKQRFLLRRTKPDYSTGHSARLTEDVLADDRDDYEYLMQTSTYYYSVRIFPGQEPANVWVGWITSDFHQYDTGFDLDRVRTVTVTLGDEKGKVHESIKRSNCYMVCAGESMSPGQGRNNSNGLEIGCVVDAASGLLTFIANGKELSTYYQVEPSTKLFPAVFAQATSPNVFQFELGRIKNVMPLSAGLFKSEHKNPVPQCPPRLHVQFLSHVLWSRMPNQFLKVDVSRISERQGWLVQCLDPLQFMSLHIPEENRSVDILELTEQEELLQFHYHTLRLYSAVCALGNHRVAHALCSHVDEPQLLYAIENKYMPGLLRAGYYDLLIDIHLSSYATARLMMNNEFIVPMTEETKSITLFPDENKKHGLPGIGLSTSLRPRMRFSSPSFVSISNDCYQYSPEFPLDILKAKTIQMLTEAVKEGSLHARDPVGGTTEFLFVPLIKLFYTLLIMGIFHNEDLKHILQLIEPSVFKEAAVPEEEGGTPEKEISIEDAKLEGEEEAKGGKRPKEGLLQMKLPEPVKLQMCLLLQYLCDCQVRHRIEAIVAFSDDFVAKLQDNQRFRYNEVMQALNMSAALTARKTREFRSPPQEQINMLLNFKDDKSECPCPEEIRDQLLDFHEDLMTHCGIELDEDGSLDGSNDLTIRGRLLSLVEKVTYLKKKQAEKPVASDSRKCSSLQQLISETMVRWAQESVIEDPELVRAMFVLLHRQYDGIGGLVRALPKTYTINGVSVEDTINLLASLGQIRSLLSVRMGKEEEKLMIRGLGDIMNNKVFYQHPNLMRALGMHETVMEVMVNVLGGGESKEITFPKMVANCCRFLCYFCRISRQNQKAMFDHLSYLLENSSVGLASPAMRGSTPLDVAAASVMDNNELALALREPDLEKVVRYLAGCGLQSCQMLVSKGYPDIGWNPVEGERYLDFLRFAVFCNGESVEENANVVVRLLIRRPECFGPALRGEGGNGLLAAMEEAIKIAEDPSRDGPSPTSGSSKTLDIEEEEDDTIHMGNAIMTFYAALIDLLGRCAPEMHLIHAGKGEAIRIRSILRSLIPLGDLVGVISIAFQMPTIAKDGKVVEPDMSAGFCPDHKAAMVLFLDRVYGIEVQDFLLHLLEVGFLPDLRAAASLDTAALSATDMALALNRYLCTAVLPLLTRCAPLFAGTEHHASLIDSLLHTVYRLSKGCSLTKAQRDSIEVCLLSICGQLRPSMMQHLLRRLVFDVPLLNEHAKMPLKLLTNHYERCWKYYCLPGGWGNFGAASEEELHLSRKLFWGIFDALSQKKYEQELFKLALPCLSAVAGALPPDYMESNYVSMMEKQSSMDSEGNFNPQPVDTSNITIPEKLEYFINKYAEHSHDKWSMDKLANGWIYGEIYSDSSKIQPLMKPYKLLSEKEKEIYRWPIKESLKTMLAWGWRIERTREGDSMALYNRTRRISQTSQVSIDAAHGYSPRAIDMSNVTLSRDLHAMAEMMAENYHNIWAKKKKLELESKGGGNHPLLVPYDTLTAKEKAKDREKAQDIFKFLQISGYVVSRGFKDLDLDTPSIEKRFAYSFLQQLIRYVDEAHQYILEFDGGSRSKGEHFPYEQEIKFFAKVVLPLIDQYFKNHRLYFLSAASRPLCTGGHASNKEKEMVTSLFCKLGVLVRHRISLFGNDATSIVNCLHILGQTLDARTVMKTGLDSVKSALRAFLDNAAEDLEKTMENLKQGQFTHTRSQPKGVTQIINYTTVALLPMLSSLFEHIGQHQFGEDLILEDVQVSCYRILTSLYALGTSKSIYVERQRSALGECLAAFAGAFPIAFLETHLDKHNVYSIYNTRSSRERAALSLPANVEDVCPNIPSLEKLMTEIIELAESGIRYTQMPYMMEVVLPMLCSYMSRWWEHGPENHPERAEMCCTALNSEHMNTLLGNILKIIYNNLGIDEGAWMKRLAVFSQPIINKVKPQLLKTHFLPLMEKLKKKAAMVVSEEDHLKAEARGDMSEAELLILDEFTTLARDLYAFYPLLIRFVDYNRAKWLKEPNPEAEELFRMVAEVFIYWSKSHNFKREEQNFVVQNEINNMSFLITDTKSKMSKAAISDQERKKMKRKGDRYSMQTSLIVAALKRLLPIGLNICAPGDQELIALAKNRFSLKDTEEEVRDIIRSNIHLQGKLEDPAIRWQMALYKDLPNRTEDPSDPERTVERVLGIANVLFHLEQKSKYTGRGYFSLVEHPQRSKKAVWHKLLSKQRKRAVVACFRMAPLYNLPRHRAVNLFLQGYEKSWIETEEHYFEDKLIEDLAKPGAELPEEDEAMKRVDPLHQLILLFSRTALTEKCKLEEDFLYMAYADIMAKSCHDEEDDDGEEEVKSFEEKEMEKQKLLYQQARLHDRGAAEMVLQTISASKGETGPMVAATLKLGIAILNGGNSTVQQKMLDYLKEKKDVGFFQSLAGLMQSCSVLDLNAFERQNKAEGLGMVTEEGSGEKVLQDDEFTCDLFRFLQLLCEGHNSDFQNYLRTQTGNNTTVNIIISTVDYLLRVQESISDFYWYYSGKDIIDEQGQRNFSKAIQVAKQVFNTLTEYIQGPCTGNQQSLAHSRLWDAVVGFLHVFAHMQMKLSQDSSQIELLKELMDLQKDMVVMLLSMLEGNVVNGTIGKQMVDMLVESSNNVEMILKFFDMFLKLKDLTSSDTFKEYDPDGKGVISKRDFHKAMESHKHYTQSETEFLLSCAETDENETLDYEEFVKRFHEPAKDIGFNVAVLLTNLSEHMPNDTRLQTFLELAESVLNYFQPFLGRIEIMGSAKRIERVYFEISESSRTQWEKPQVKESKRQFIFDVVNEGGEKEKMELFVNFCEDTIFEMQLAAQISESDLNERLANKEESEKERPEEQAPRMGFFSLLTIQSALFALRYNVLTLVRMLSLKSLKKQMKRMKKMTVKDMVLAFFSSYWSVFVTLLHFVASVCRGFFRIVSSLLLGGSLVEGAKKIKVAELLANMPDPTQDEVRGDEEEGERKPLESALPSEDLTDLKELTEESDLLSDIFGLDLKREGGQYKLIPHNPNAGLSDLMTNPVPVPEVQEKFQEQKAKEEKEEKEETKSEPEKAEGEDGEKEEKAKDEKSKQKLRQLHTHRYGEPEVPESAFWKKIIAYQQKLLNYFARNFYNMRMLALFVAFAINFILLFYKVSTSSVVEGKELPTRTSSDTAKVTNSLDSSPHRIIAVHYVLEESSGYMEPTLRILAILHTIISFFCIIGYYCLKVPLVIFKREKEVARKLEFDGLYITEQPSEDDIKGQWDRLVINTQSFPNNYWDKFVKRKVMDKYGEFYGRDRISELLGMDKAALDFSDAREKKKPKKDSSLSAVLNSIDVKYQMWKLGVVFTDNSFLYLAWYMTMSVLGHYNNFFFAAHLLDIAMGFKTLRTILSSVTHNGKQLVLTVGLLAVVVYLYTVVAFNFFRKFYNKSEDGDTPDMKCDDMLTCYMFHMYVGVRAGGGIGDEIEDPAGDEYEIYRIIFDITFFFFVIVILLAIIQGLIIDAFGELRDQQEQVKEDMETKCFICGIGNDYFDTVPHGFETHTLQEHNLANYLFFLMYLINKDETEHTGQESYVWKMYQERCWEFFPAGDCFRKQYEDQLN

O=C1CN(/N=C/c2ccc(-c3ccc([N+](=O)[O-])cc3)o2)C(O)=N1 [dantrolene]
effect on [Ca^2+]ER (R-CEPIA1er fluorescence), in words [1]: increase in R-CEPIA1er fluorescence
Relative changes in the decay time tau of Ca2+ transients from spontaneous Ca2+ waves (in control/drug) [2]: significantly above 1
Relative changes in the decay time tau of Ca2+ transients from spontaneous Ca2+ waves (in control/drug) [3]: significantly above 1
